Test results as given in US20260053792A1, “POLYSUBSTITUTED TETRAHYDROISOQUINOLINE COMPOUNDS, METHOD FOR PREPARING SAME, PHARMACEUTICAL COMPOSITION THEREOF, AND USE THEREOF” (SHANGHAI INSTITUTE OF MATERIA MEDICA, CHINESE ACADEMY OF …, priority 2022, published 2026).
Like-named read-outs stand apart in the source and are kept apart here.

Experiment: Tissue distribution of compound A26 in mice (plasma / cerebrospinal fluid drug concentration)
Type: in vivo
Conditions: for Kp at 0.25 h / Kp at 0.5 h / concentration at 15 min / concentration at 30 min: mouse; for Kp at 0.25 h / Kp at 0.5 h: brain/plasma, read-out: Brain to plasma drug concentration ratio (Cbrain/Cplasma); for Kp at 0.25 h / concentration at 15 min: 15 min; for Kp at 0.5 h / concentration at 30 min: 30 min
Method: The drug concentrations in plasma or cerebrospinal fluid at two time points of 15 minutes and 30 minutes under three administration routes: oral (20 mg/kg), intraperitoneal injection (10 mg/kg), and intravenous injection (5 mg/kg) were measured.

[1] = cerebrospinal fluid, IP 10 mg/kg, read-out: cerebrospinal fluid
[2] = cerebrospinal fluid, IV 5 mg/kg, read-out: cerebrospinal fluid
[3] = cerebrospinal fluid, PO 20 mg/kg, read-out: cerebrospinal fluid
[4] = plasma, IP 10 mg/kg, read-out: Cardiac plasma
[5] = plasma, IV 5 mg/kg, read-out: Cardiac plasma
[6] = plasma, PO 20 mg/kg, read-out: Cardiac plasma

In the case of `COc1cc2c(cc1OC)C(CCc1c[nH]c3ccccc13)N(CC1CCOCC1)CC2` (stereo not shown) [Compound A26, 1-(2-(1H-indol-3-yl)ethyl)-6,7-dimethoxy-2-((tetrahydro-2H-pyran-4-yl)methyl)-1,2,3,4-tetrahydroisoquinoline], the “blood-brain barrier penetration ability and brain targeting property” value (conclusion from brain/plasma ratios) is reported as “good”, the Kp at 0.25 h (IP 10 mg/kg) is reported as 2.12 and the Kp at 0.5 h (IP 10 mg/kg) is reported as 1.91. It also gave a Kp at 0.25 h (IV 5 mg/kg) of 3.3, a Kp at 0.5 h (IV 5 mg/kg) of 2.2 and a Kp at 0.25 h (PO 20 mg/kg) of 3.4. It also gave a Kp at 0.5 h (PO 20 mg/kg) of 1.6, a concentration at 15 min [1] of 665 ± 49 ng/g and a concentration at 30 min [1] of 355 ± 106 ng/g. For the same compound, the concentration at 15 min [2] was 1560 ± 245 ng/g, the concentration at 30 min [2] was 292 ± 69 ng/g and the concentration at 15 min [3] was 224 ± 363 ng/g. For the same compound, the concentration at 30 min [3] was 32.4 ± 11.9 ng/g, the concentration at 15 min [4] was 313 ± 15 ng/mL and the concentration at 30 min [4] was 186 ± 57 ng/mL. For the same compound, the concentration at 15 min [5] was 466 ± 85 ng/mL, the concentration at 30 min [5] was 135 ± 47 ng/mL and the concentration at 15 min [6] was 65.3 ± 94.7 ng/mL. For the same compound, the concentration at 30 min [6] was 20.7 ± 6.1 ng/mL.
